Results reported in patent US8859491B2 (priority 2011, dated 2014).
Non-standard residues stand in square brackets, D forms with d. No end group written: not given here. Aib = CC(C)(N)C(=O)O

How the values were obtained:
[1] = Administration of GLP-1 conjugates to diet induced obese mice (FIGS. 3-10, 12); type: in vivo; conditions: for blood glucose levels: FIG. 7b; for change in blood glucose: FIG. 5b, SEQ ID NO: 1647 at high or low doses, SEQ ID NO: 1651 at high dose
[2] = Example 15: DIO mice, daily sc dosing; type: in vivo; conditions: high dose, between days 0 and 21
Method: Diet-induced obesity (DIO) mice (N=8, average initial body weight=59 g) were subcutaneously injected once per day for four weeks with vehicle or one of the following: […] Blood glucose levels were measured at the 0, 15, 30, 60, and 120 min time points. FIG. 4a presents data from this experiment. Body weight was measured after 21 days and the change in total body weight and fat mass were determined (FIGS. 4b-c).

[3] = Stability analysis in 100% human plasma (estrogen release); conditions: 1 mg/mL, pH 7.4, 37° C.
glucocorticoid receptor = molecular target: T1, glucocorticoid receptor (Homo sapiens, UniProt P04150); assay: EC50
T1 construct: two clones of HeLa cells (ATCC #CCL-2) transfected with murine mammary tumor virus long terminal repeat-driven firefly luciferase; host or cells: HeLa
T1 sequence (P04150 whole entry, looked up): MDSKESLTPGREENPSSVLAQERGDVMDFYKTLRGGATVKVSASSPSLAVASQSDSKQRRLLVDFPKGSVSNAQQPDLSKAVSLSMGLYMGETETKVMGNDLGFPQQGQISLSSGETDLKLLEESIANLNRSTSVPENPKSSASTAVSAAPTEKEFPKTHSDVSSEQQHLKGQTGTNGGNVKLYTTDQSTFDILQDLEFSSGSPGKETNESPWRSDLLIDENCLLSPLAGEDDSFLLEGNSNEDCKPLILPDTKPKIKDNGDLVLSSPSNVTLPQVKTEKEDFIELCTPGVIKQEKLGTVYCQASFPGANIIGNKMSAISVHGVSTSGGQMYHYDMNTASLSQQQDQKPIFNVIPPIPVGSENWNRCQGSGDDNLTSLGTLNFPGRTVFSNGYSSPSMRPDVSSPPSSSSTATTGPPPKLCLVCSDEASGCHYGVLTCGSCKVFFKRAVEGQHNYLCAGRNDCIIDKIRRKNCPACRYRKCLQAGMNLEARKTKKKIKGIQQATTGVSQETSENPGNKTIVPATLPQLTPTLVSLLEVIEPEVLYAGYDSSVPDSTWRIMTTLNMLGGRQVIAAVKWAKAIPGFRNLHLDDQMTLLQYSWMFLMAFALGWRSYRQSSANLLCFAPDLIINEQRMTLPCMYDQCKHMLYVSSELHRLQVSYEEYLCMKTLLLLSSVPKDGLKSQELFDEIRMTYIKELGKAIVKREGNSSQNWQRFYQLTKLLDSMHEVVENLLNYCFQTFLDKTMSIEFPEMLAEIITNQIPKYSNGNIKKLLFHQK

[4] = Example 13: db/db mice, daily sc dosing; type: in vivo
Method: Mice (db/db, N=6, average initial body weight=54 g) were subcutaneously injected once per day for four weeks with vehicle or 40 or 400 μg/kg of one of the following:
Body weight was measured after 23 days and the change in body weight was determined (FIG. 2a).

[5] = Example 14: DIO mice, daily sc dosing; type: in vivo
Method: Diet-induced obesity (DIO) mice (N=8, 6 mice per group, average initial body weight=58 g) were subcutaneously injected once per day for four weeks with vehicle or 4, 40, or 400 μg/kg of one of the following:
A saline solution comprising 25% (v/v) glucose was injected at a dose of 1.5 g/kg of body weight at the 0 min time point on days 7 and 21. Blood glucose was measured at the 0, 15, 30, 60, and 120 min time points on day 7 and day 21 (FIG. 3a).
Body weight was measured after 23 days and the change in body weight, change in fat mass, and change in lean muscle mass were determined (FIGS. 3b-d).

[6] = Administration of GLP-1 conjugates to db/db mice (FIG. 2); type: in vivo; conditions: high dose
[7] = high dose, between days 0 and 21, vs GLP-1(Aib2E16Cex K40) (SEQ ID NO: 1647) alone, FIG. 4d
[8] = over a period of 7 days, FIG. 7a
[9] = high dose (400 μg/kg-day), after 23 days
[10] = high dose, between days 0 and 14

For “GLP-1(Aib^2E^16K^40Cex)/Estrogen(17-ester) (H[Aib]EGTFTSDVSSYLEEQAAKEFIAWLVKGGPSSGAPPPSK-NH2; not fully specified (residue 40)) [SEQ ID NO: 1655]”, the “change in blood glucose levels” value ([1]; between days 0 and 7, FIG. 6c) was “greatest change”, the “change in blood glucose levels” value [1, 7] was “greater change” and the total body weight [1, 8] was “greatest decrease”. For the same compound, the blood glucose levels ([1]; over a period of 7 days) was “greatest decrease” and the “change in blood glucose levels” value [2] was “greater change in blood glucose levels”.
In the case of `CC[C@H](C)[C@H](NC(=O)[C@H](Cc1ccccc1)NC(=O)[C@H](CCC(=O)O)NC(=O)[C@H](CCCCN)NC(=O)[C@H](C)NC(=O)[C@H](C)NC(=O)[C@H](CCC(N)=O)NC(=O)[C@H](CCC(=O)O)NC(=O)[C@H](CCC(=O)O)NC(=O)[C@H](CC(C)C)NC(=O)[C@H](Cc1ccc(O)cc1)NC(=O)[C@H](CO)NC(=O)[C@H](CO)NC(=O)[C@@H](NC(=O)[C@H](CC(=O)O)NC(=O)[C@H](CO)NC(=O)[C@@H](NC(=O)[C@H](Cc1ccccc1)NC(=O)[C@@H](NC(=O)CNC(=O)[C@H](CCC(=O)O)NC(=O)C(C)(C)NC(=O)[C@@H](N)Cc1c[nH]cn1)[C@@H](C)O)[C@@H](C)O)C(C)C)C(=O)N[C@@H](C)C(=O)N[C@@H](Cc1c[nH]c2ccccc12)C(=O)N[C@@H](CC(C)C)C(=O)N[C@H](C(=O)N[C@@H](CCCCN)C(=O)NCC(=O)NCC(=O)N1CCC[C@H]1C(=O)N[C@@H](CO)C(=O)N[C@@H](CO)C(=O)NCC(=O)N[C@@H](C)C(=O)N1CCC[C@H]1C(=O)N1CCC[C@H]1C(=O)N1CCC[C@H]1C(=O)N[C@@H](CO)C(=O)N[C@@H](CCCCNC(=O)CCC(=O)Oc1ccc2c(c1)CC[C@@H]1[C@@H]2CC[C@]2(C)[C@@H](OC(C)=O)CC[C@@H]12)C(N)=O)C(C)C` [GLP-1/Estrogen(3-ester)], the “estrogen release in plasma” value [3] is reported as “substantial estrogen release after 3 hours” and the “time to complete estrogen release in plasma” value [3] is reported as at most 6 h.
With “GLP-1(Aib^2E^16K^40Cex)/Estrogen(3-ether) (H[Aib]EGTFTSDVSSYLEEQAAKEFIAWLVKGGPSSGAPPPSK-NH2; not fully specified (residue 40)) [SEQ ID NO: 1651]” the “change in blood glucose” value [1] was “greatest change”, the “change in blood glucose levels” value ([1]; between days 0 and 7, FIG. 6c) was “greatest change” and the “change in blood glucose levels” value [1, 7] was “greater change”. For the same compound, the total body weight [1, 8] was “greatest decrease”, the blood glucose levels ([1]; over a period of 7 days) was “greatest decrease” and the “change in blood glucose levels” value [2] was “greater change in blood glucose levels”.
Compound `CC[C@H](C)[C@H](NC(=O)[C@H](Cc1ccccc1)NC(=O)[C@H](CCC(=O)O)NC(=O)[C@H](CCCCN)NC(=O)[C@H](C)NC(=O)[C@H](C)NC(=O)[C@H](CCC(N)=O)NC(=O)[C@H](CCC(=O)O)NC(=O)[C@H](CCC(=O)O)NC(=O)[C@H](CC(C)C)NC(=O)[C@H](Cc1ccc(O)cc1)NC(=O)[C@H](CO)NC(=O)[C@H](CO)NC(=O)[C@@H](NC(=O)[C@H](CC(=O)O)NC(=O)[C@H](CO)NC(=O)[C@@H](NC(=O)[C@H](Cc1ccccc1)NC(=O)[C@@H](NC(=O)CNC(=O)[C@H](CCC(=O)O)NC(=O)C(C)(C)NC(=O)[C@@H](N)Cc1c[nH]cn1)[C@@H](C)O)[C@@H](C)O)C(C)C)C(=O)N[C@@H](C)C(=O)N[C@@H](Cc1c[nH]c2ccccc12)C(=O)N[C@@H](CC(C)C)C(=O)N[C@H](C(=O)N[C@@H](CCCCN)C(=O)NCC(=O)NCC(=O)N1CCC[C@H]1C(=O)N[C@@H](CO)C(=O)N[C@@H](CO)C(=O)NCC(=O)N[C@@H](C)C(=O)N1CCC[C@H]1C(=O)N1CCC[C@H]1C(=O)N1CCC[C@H]1C(=O)N[C@@H](CO)C(=O)NC(CCSSCCNC(=O)OCC(=O)[C@@]1(O)[C@H](C)C[C@H]2[C@@H]3CCC4=CC(=O)C=C[C@]4(C)[C@@]3(F)[C@@H](O)C[C@@]21C)C(N)=O)C(C)C` (stereo partly drawn) [[Aib2, E16]GLP-1-CEX-homoCys40(S—SCH2CH2NHCO—O-DEX)] has an EC50 (glucocorticoid receptor) of 65.4 µM.
With “GLP-1(Aib^2E^16Cex K^40)/Estrogen(3-ester) (H[Aib]EGTFTSDVSSYLEEQAAKEFIAWLVKGGPSSGAPPPSK-NH2; not fully specified (residue 40)) [SEQ ID NO: 1658]” the “change in blood glucose levels” value ([1]; between days 0 and 7, FIG. 8b) was “greatest change”.
For “d-amino acid containing GLP-1/Estrogen ester conjugate: d-amino acid containing GLP-1/Estrogen conjugate, estrogen covalently linked as ester that was unstable in vivo ([dA][Aib][dE]G[dT][dF][dT][dS][dD][dV][dS][dS][dY][dL][dE]G[dQ][dA][dA][dK][dE][dA][dI][dA][dW][dL][dV][dK]GG[dP][dS][dS]G[dA][dP][dP][dP][dS]K-NH2; not fully specified (residue 40))”, the total body weight ([1]; FIG. 10a) was “greatest decrease” and the “change in blood glucose levels” value ([1]; between days 0 and 7, vs comparable d-amino acid peptide with stable estrogen conjugate, FIG. 10b) was “greater change”.
For “GLP-1(Aib^2A^22CexK^40)/Estrogen(17-ester): A22 GLP-1 analog conjugated to estrogen by 17-ester (H[Aib]EGTFTSDVSSYLEGQAAKEAIAWLVKGGPSSGAPPPSK-NH2; not fully specified (residue 40))”, the “change in body weight” value [4, 9] was “greater decrease in body weight then mice that were administered GLP-1 alone”, the cumulative food intake ([4]; high dose, 23 days) was “consumed less food than those that were administered GLP-1 alone” and the blood glucose levels [4, 10] was “greatest decrease in blood glucose levels”. For the same compound, the “change in body weight” value [5, 9] was “greatest decrease in body weight”, the cumulative food intake ([5]; high dose, 23 days) was “consumed the least amount of food” and the “change in fat mass” value ([5]; high dose, after 23 days) was “greatest decrease in body weight and fat mass”. The “change in lean muscle mass” value ([5]; high dose, after 23 days) was “least amount of lean muscle mass loss” and the change blood glucose [5, 10] was “greatest decrease in blood glucose levels”.
For “GLP-1(Aib^2A^22CexK^40)/Estrogen(17-ester) (H[Aib]EGTFTSDVSSYLEGQAAKEAIAWLVKGGPSSGAPPPSK-NH2; not fully specified (residue 40)) [SEQ ID NO: 1656]”, the “change in body weight” value ([6]; FIG. 2a) was “slightly greater decrease in body weight than mice that were administered GLP-1 alone, but similar to vehicle”, the blood glucose levels ([6]; between days 0 and 14, FIGS. 2b and 2c) was “greatest decrease” and the “change in body weight” value ([1]; high dose, FIG. 3b) was “greatest decrease”. The “change in fat mass” value ([1]; high dose, FIG. 3c) was “greatest decrease”, the “change in lean muscle mass” value ([1]; high dose, FIG. 3d) was “least amount of change” and the “changes in blood glucose” value ([1]; high dose, between days 0 and 14, FIG. 3e) was “greatest decrease”.
`CC[C@H](C)[C@H](NC(=O)[C@H](Cc1ccccc1)NC(=O)[C@H](CCC(=O)O)NC(=O)[C@H](CCCCN)NC(=O)[C@H](C)NC(=O)[C@H](C)NC(=O)[C@H](CCC(N)=O)NC(=O)[C@H](CCC(=O)O)NC(=O)[C@H](CCC(=O)O)NC(=O)[C@H](CC(C)C)NC(=O)[C@H](Cc1ccc(O)cc1)NC(=O)[C@H](CO)NC(=O)[C@H](CO)NC(=O)[C@@H](NC(=O)[C@H](CC(=O)O)NC(=O)[C@H](CO)NC(=O)[C@@H](NC(=O)[C@H](Cc1ccccc1)NC(=O)[C@@H](NC(=O)CNC(=O)[C@H](CCC(=O)O)NC(=O)C(C)(C)NC(=O)[C@@H](N)Cc1c[nH]cn1)[C@@H](C)O)[C@@H](C)O)C(C)C)C(=O)N[C@@H](C)C(=O)N[C@@H](Cc1c[nH]c2ccccc12)C(=O)N[C@@H](CC(C)C)C(=O)N[C@H](C(=O)N[C@@H](CCCCN)C(=O)NCC(=O)NCC(=O)N1CCC[C@H]1C(=O)N[C@@H](CO)C(=O)N[C@@H](CO)C(=O)NCC(=O)N[C@@H](C)C(=O)N1CCC[C@H]1C(=O)N1CCC[C@H]1C(=O)N1CCC[C@H]1C(=O)N[C@@H](CO)C(=O)NC(C(N)=O)C(C)(C)SSCCNC(=O)OCC(=O)[C@@]1(O)[C@H](C)C[C@H]2[C@@H]3CCC4=CC(=O)C=C[C@]4(C)[C@@]3(F)[C@@H](O)C[C@@]21C)C(C)C` (stereo partly drawn) [[Aib2, E16]GLP-1-CEX-Pen40(S—SCH2CH2NHCO—O-DEX)] showed an EC50 (glucocorticoid receptor) of 73.3 µM.
With “GLP-1(Aib^2E^16Cex K^40) (H[Aib]EGTFTSDVSSYLEEQAAKEFIAWLVKGGPSSGAPPPSK-NH2) [SEQ ID NO: 1647]” the “change in blood glucose” value [1] was “greatest change”.
